Results published in patent publication US20220365070A1, “COMPOSITIONS, SYSTEMS, AND METHODS FOR IDENTIFYING A COMPOUND THAT MODULATES ONE OR MORE CHARACTERISTICS ASSOCIATED WITH A RBM20 CONDENSATE AND/OR A RBM20 POLYPEPTIDE” (Dewpoint Therapeutics, Inc., priority 2019, published 2022).

System: cytoplasmic mutant R636S RBM20 condensates in H9C2 cells
Experiment: Screening assay for compounds that modulate cytoplasmic mutant R636S RBM20 condensates (fluorescence imaging)
Format: cell-based, rat
Conditions: H9C2 cells transiently transfected with R636S RBM20-Dendra2; 20 μM test compound; incubated 24 hours; versus DMSO
Procedure: H9C2 cells were engineered using transient transfection to express a mutant R636S RBM20 polypeptide linked to a Dendra2 label. Following transfection, cells were incubated to allow for RBM20 polypeptide expression for about 16 hours. H9C2 cells were seeded into 384-well plates, and admixed with a control (DMSO) or 20 μM test compound, and then incubated for 24 hours prior to fixation, staining (e.g., with DAPI), and capturing of fluorescent images. H9C2 cells not transfected with mutant R636S RBM20 polypeptide served as controls. Three replicates were run for each compound. Fluorescent images of cells, and/or portions of cells, were captured using a DeltaVision wide-field deconvoluted system.
Non-transfected H9C2 cells served as control. […] Their down-regulation levels are indicated as Z score under each panel.

Structure (SMILES) | effect on cytoplasmic mutant R636S RBM20 condensates
O=C1Nc2cc(Br)ccc2/C1=C1/Nc2ccccc2/C1=N\O [BIO] | able to reduce cytoplasmic mutant R636S RBM20 condensates
CC(C)[C@]12O[C@H]1[C@@H]1O[C@]13[C@]1(O[C@H]1C[C@H]1C4=C(CC[C@@]13C)C(=O)OC4)[C@@H]2O [Triptolide] | able to reduce cytoplasmic mutant R636S RBM20 condensates
CN1CCN(Cc2ccc(NC(=O)Cc3ccc(Oc4cc(NC(=O)C5CC5)ncn4)cc3)cc2C(F)(F)F)CC1 [WS6] | able to reduce cytoplasmic mutant R636S RBM20 condensates
COc1ccc(C[C@H]2NC[C@H](O)[C@H]2OC(C)=O)cc1 [anisomycin] | able to reduce cytoplasmic mutant R636S RBM20 condensates
Cn1ncc(Cl)c1-c1cc(C(=O)N[C@H](CN)Cc2ccc(F)c(F)c2)oc1Cl [Uprosertib] | able to reduce cytoplasmic mutant R636S RBM20 condensates
CCN(CC)CCCC(C)Nc1c2ccc(Cl)cc2nc2ccc(OC)cc12.Cl.Cl (stereo not drawn) [Quinacrine 2HCl] | increased cytoplasmic mutant R636S RBM20 condensates
